Values of other authors as cited in patent US10822295B2, “Menaquinol compositions and methods of treatment” (Epizon Pharma, Inc., priority 2018, dated 2020).

Key:
incidence of fractures = settings: in vivo
[1] = compared to MK-4
normal blood coagulation = settings: compared to vitamin K1 and MK-4

CC(C)=CCC/C(C)=C/CC/C(C)=C/CC/C(C)=C/CC1=C(C)C(=O)c2ccccc2C1=O [MK-4, menaquinone-4]
incidence of fractures (incidence of fractures): decrease the incidence of fractures

CC(C)=CCC/C(C)=C/CC/C(C)=C/CC/C(C)=C/CC/C(C)=C/CC/C(C)=C/CC/C(C)=C/CC1=C(C)C(=O)c2ccccc2C1=O [MK-7, menaquinone-7]
half-life in serum [1]: long half-life | effects on normal blood coagulation (normal blood coagulation): greater and longer lasting
